In patent US20230041563A1, “N-(1,3,4-OXADIAZOL-2-YL)ARYLCARBOXAMIDES OR SALTS THEREOF, PREPARATION METHODS, HERBICIDAL COMPOSITIONS AND USES THEREOF” (priority 2018, published 2023):

What was measured:
Format in all cases: in vivo
Abutilon theophrasti = test: Weeding effect in post-emergence stage (greenhouse pot spray)
Summary of the method: (§1)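 Fresh-weight control rate was assessed 3 weeks after post-emergence spray-tower application at doses of 500–15 g a.i./ha, triplicate. Weeds were treated at the 2–3 leaf stage, 2 weeks post-sowing, using acetone solutions with Tween 80 plus 1.5 L/ha methyl oleate emulsifiable concentrate.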

Digitaria sanguinalis = test: as above
Summary of the method: as §1

Echinochloa crusgalli = test: as above
Summary of the method: as §1

Setaria viridis = test: as above
Summary of the method: as §1

Amaranthus retroflexus = test: as above
From the text: (§2) The activity level criteria for plant damage (i.e., growth control rate) are as follows:
(§3) The above growth control rates are fresh weight control rates.
(§4) Experiment on weeding effect in post-emergence stage: monocotyledonous and dicotyledonous weed seeds (Descurainia sophia, Capsella bursa-pastoris, Abutilon theophrasti, Galium aparine, Stellaria media, Lithospermum arvense, rorippa indica, Alopecurus aequalis, Beckmannia syzigachne, Sclerochloa dura, Phleum paniculatum, Bromus japonicus, Aegilops tauschii, Phalaris arundinacea, Amaranthus retroflexus, Chenopodiaceae, Commelina communis, Sonchus arvensis, convolvulus arvensis, Cirsium setosum, Solanum nigrum, Acalypha australis, Digitaria sanguinalis, Echinochloa crusgalli, Setaria viridis, Setaria glauca, Leptochloa chinensis, Monochoria vaginalis, Sagittaria trifolia, Scirpus juncoides, Cyperus rotundus, Cyperus iria, Cyperus difformis, Fimbristylis, Portulaca oleracea, Xanthium sibiricum, Pharbitis nil) and major crop seeds (wheat, corn, rice, soybean, cotton, oilseed rape, millet, sorghum, potato, sesame, ricinus) were placed in plastic pots filled with soil, then covered with 0.5-2 cm of soil, allowed to grow in a good greenhouse environment. After 2 weeks of sowing, the test plants were treated in the 2 to 3 leaf stage. The tested compounds of the present invention were respectively dissolved in acetone, then added with Tween 80 and 1.5 liter/ha of emulsifiable concentrate of methyl oleate as synergist, diluted with a certain amount of water to obtain a solution with a certain concentration, and sprayed with a spray tower onto the plants. After the application, the plants were cultured for 3 weeks in the greenhouse, and then the experimental results of the weeding were counted. The doses of the used compounds were 500, 250, 125, 60, 15 g a.i./ha, and the averages were obtained by repeating for three times.

Stellaria media = test: as above
From the text: as §2, §3, §4

weeds = test: Actual control effects and combined effects of mixtures of active ingredients (i) and (ii), stem-leaf treatment, Gowing method; settings: stem-leaf treatment, 20 days

Compound: CSc1c(C(F)(F)F)ccc(C(=O)Nc2nnc(C)o2)c1F [Compound 1-1]
- Abutilion theophrasti (activity level) (Abutilon theophrasti; Table 2, dose 60 g a.i./ha): 2 (Level 2: growth control rate is greater than or equal to 20% and less than 40%)
- Abutilion theophrasti (activity level) (Abutilon theophrasti; Table 2, dose 125 g a.i./ha): 4 (Level 4: growth control rate is greater than or equal to 60% and less than 85%)
- Abutilion theophrasti (activity level) (Abutilon theophrasti; Table 2, dose 250 g a.i./ha): 4 (Level 4: growth control rate is greater than or equal to 60% and less than 85%)
- Abutilion theophrasti (activity level) (Abutilon theophrasti; Table 2, dose 500 g a.i./ha): 4 (Level 4: growth control rate is greater than or equal to 60% and less than 85%)
- Abutilon theophrasti (activity level) (Abutilon theophrasti; Table 3, dose 60 g a.i./ha): 2 (Level 2: growth control rate is greater than or equal to 20% and less than 40%)
- Abutilon theophrasti (activity level) (Abutilon theophrasti; Table 3, dose 120 g a.i./ha): 4 (Level 4: growth control rate is greater than or equal to 60% and less than 85%)
- Digitaria sanguinalis (activity level) (Digitaria sanguinalis; Table 2, dose 60 g a.i./ha): 1 (Level 1: growth control rate is greater than or equal to 5% and less than 20%)
- Digitaria sanguinalis (activity level) (Digitaria sanguinalis; Table 2, dose 125 g a.i./ha): 2 (Level 2: growth control rate is greater than or equal to 20% and less than 40%)
- Digitaria sanguinalis (activity level) (Digitaria sanguinalis; Table 2, dose 250 g a.i./ha): 3 (Level 3: growth control rate is greater than or equal to 40% and less than 60%)
- Digitaria sanguinalis (activity level) (Digitaria sanguinalis; Table 2, dose 500 g a.i./ha): 4 (Level 4: growth control rate is greater than or equal to 60% and less than 85%)
- Digitaria sanguinahs (activity level) (Digitaria sanguinalis; Table 3, dose 7.5 g a.i./ha): 0 (Level 0: growth control rate is less than 5%)
- Digitaria sanguinahs (activity level) (Digitaria sanguinalis; Table 3, dose 15 g a.i./ha): 0 (Level 0: growth control rate is less than 5%)
- Digitaria sanguinahs (activity level) (Digitaria sanguinalis; Table 3, dose 30 g a.i./ha): 1 (Level 1: growth control rate is greater than or equal to 5% and less than 20%)
- Digitaria sanguinahs (activity level) (Digitaria sanguinalis; Table 3, dose 60 g a.i./ha): 1 (Level 1: growth control rate is greater than or equal to 5% and less than 20%)
- Digitaria sanguinahs (activity level) (Digitaria sanguinalis; Table 3, dose 120 g a.i./ha): 2 (Level 2: growth control rate is greater than or equal to 20% and less than 40%)
- Echinochloa crusgah (activity level) (Echinochloa crusgalli; Table 2, dose 60 g a.i./ha): 2 (Level 2: growth control rate is greater than or equal to 20% and less than 40%)
- Echinochloa crusgah (activity level) (Echinochloa crusgalli; Table 2, dose 125 g a.i./ha): 4 (Level 4: growth control rate is greater than or equal to 60% and less than 85%)
- Echinochloa crusgah (activity level) (Echinochloa crusgalli; Table 2, dose 250 g a.i./ha): 4 (Level 4: growth control rate is greater than or equal to 60% and less than 85%)
- Echinochloa crusgah (activity level) (Echinochloa crusgalli; Table 2, dose 500 g a.i./ha): 4 (Level 4: growth control rate is greater than or equal to 60% and less than 85%)
- Echinochloa crusgali (activity level) (Echinochloa crusgalli; Table 3, dose 7.5 g a.i./ha): 0 (Level 0: growth control rate is less than 5%)
- Echinochloa crusgali (activity level) (Echinochloa crusgalli; Table 3, dose 15 g a.i./ha): 1 (Level 1: growth control rate is greater than or equal to 5% and less than 20%)
- Echinochloa crusgali (activity level) (Echinochloa crusgalli; Table 3, dose 30 g a.i./ha): 2 (Level 2: growth control rate is greater than or equal to 20% and less than 40%)
- Echinochloa crusgali (activity level) (Echinochloa crusgalli; Table 3, dose 60 g a.i./ha): 2 (Level 2: growth control rate is greater than or equal to 20% and less than 40%)
- Setaria viridis (activity level) (Setaria viridis; Table 3, dose 7.5 g a.i./ha): 0 (Level 0: growth control rate is less than 5%)
- Setaria viridis (activity level) (Setaria viridis; Table 3, dose 15 g a.i./ha): 0 (Level 0: growth control rate is less than 5%)
- Setaria viridis (activity level) (Setaria viridis; Table 3, dose 30 g a.i./ha): 1 (Level 1: growth control rate is greater than or equal to 5% and less than 20%)
- Setaria viridis (activity level) (Setaria viridis; Table 3, dose 60 g a.i./ha): 1 (Level 1: growth control rate is greater than or equal to 5% and less than 20%)
- Setaria viridis (activity level) (Setaria viridis; Table 3, dose 120 g a.i./ha): 2 (Level 2: growth control rate is greater than or equal to 20% and less than 40%)
- Amaranthus retroflexus (activity level) (Amaranthus retroflexus; Table 2, dose 60 g a.i./ha): 4 (Level 4: growth control rate is greater than or equal to 60% and less than 85%)
- Amaranthus retroflexus (activity level) (Amaranthus retroflexus; Table 2, dose 125 g a.i./ha): 4 (Level 4: growth control rate is greater than or equal to 60% and less than 85%)
- Amaranthus retroflexus (activity level) (Amaranthus retroflexus; Table 2, dose 250 g a.i./ha): 4 (Level 4: growth control rate is greater than or equal to 60% and less than 85%)
- Amaranthus retroflexus (activity level) (Amaranthus retroflexus; Table 2, dose 500 g a.i./ha): 4 (Level 4: growth control rate is greater than or equal to 60% and less than 85%)
- Stellaria media (activity level) (Stellaria media; Table 2, dose 60 g a.i./ha): 3 (Level 3: growth control rate is greater than or equal to 40% and less than 60%)
- Stellaria media (activity level) (Stellaria media; Table 2, dose 125 g a.i./ha): 4 (Level 4: growth control rate is greater than or equal to 60% and less than 85%)
- Stellaria media (activity level) (Stellaria media; Table 2, dose 250 g a.i./ha): 4 (Level 4: growth control rate is greater than or equal to 60% and less than 85%)
- Stellaria media (activity level) (Stellaria media; Table 2, dose 500 g a.i./ha): 4 (Level 4: growth control rate is greater than or equal to 60% and less than 85%)
- Control effect of (i) alone at corresponding dose (weeds; Cyperus difformis, (i) 1 g a.i./mu): 6.2%
- Control effect of (i) alone at corresponding dose (weeds; Cyperus difformis, (i) 5 g a.i./mu): 30.6%
- Control effect of (i) alone at corresponding dose (weeds; Echinochloa phyllopogon, (i) 1 g a.i./mu): 8.3%
- Control effect of (i) alone at corresponding dose (weeds; Echinochloa phyllopogon, (i) 2 g a.i./mu): 18.7%
- Control effect of (i) alone at corresponding dose (weeds; Echinochloa phyllopogon, (i) 3 g a.i./mu): 43.1%
- Control effect of (i) alone at corresponding dose (weeds; Leptochloa chinensis, (i) 5 g a.i./mu): 3.8%
- Control effect of (i) alone at corresponding dose (weeds; Leptochloa chinensis, (i) 15 g a.i./mu): 20.3%
- Control effect of (i) alone at corresponding dose (weeds; Monochoria vaginalis, (i) 5 g a.i./mu): 9.6%
- Control effect of (i) alone at corresponding dose (weeds; Monochoria vaginalis, (i) 6 g a.i./mu): 12.3%
- Control effect of (i) alone at corresponding dose (weeds; Monochoria vaginalis, (i) 7.5 g a.i./mu): 15.1%
- Control effect of (i) alone at corresponding dose (weeds; Monochoria vaginalis, (i) 15 g a.i./mu): 23.9%
- Control effect of (i) alone at corresponding dose (weeds; Sagittaria trifolia, (i) 1 g a.i./mu): 10.9%
- Control effect of (i) alone at corresponding dose (weeds; Sagittaria trifolia, (i) 5 g a.i./mu): 33.5%

Compound: CCSc1c(C(F)(F)F)ccc(C(=O)Nc2nnco2)c1F [Compound 3-4]
- Abutilion theophrasti (activity level) (Abutilon theophrasti; Table 2, dose 500 g a.i./ha): 5 (Level 5: growth control rate is above 85%)
- Digitaria sanguinalis (activity level) (Digitaria sanguinalis; Table 2, dose 500 g a.i./ha): 5 (Level 5: growth control rate is above 85%)
- Digitaria sanguinahs (activity level) (Digitaria sanguinalis; Table 3, dose 250 g a.i./ha): 5 (Level 5: growth control rate is above 85%)
- Echinochloa crusgah (activity level) (Echinochloa crusgalli; Table 2, dose 500 g a.i./ha): 5 (Level 5: growth control rate is above 85%)
- Echinochloa crusgali (activity level) (Echinochloa crusgalli; Table 3, dose 250 g a.i./ha): 5 (Level 5: growth control rate is above 85%)
- Setaria viridis (activity level) (Setaria viridis; Table 3, dose 250 g a.i./ha): 5 (Level 5: growth control rate is above 85%)
- Amaranthus retroflexus (activity level) (Amaranthus retroflexus; Table 2, dose 500 g a.i./ha): 5 (Level 5: growth control rate is above 85%)
- Stellaria media (activity level) (Stellaria media; Table 2, dose 500 g a.i./ha): 5 (Level 5: growth control rate is above 85%)

Compound: Cc1nnc(NC(=O)c2ccc(C(F)(F)F)c(S(=O)(=O)C(C)C)c2F)o1 [Compound 1-12]
- Abutilion theophrasti (activity level) (Abutilon theophrasti; Table 2, dose 250 g a.i./ha): 5 (Level 5: growth control rate is above 85%)
- Digitaria sanguinalis (activity level) (Digitaria sanguinalis; Table 2, dose 250 g a.i./ha): 5 (Level 5: growth control rate is above 85%)
- Echinochloa crusgah (activity level) (Echinochloa crusgalli; Table 2, dose 250 g a.i./ha): 5 (Level 5: growth control rate is above 85%)
- Amaranthus retroflexus (activity level) (Amaranthus retroflexus; Table 2, dose 250 g a.i./ha): 5 (Level 5: growth control rate is above 85%)
- Stellaria media (activity level) (Stellaria media; Table 2, dose 250 g a.i./ha): 5 (Level 5: growth control rate is above 85%)
